Test results published in US8114885B2, “Chemical compounds” (GlaxoSmithKline LLC, priority 2000, dated 2012).
Counter-ions that a name gives are not always drawn.

tested on: HUVEC; experiment: Human Umbilical Vein Endothelial Cell (HUVEC) proliferation assay (BrdU incorporation); type: cell-based; conditions: VEGF-stimulated HUVEC, 72 hrs, read-out: Inhibition of HUVEC proliferation IC50
Method: Human Umbilical Vein Endothelial Cell (HUVEC) Proliferation Assay (BrdU Incorporation) Materials
HUVEC cells and EGM-MV (Endothelial cell growth medium—microvascular) were purchased from Clonetics (San Diego, Calif.). VEGF and bFGF were purchased from R&D Systems (Minneapolis, Minn.). Anti-BrdU antibody was obtained from Chemicon International (Temecula, Calif.).
HUVECs were routinely maintained in EGM-MV medium and were used within passage 7. HUVECs were plated at a density of 2500 cells/well in M199 medium containing 5% FBS (Hyclone) in type I collagen coated plate (Becton Dickinson). The plate was incubated at 37° C. overnight. The medium was removed by aspiration, and test compounds were added to each well in a volume of 0.1 ml/well in serum-free M199 medium. Compound concentrations ranged from 1.5 nM to 30 micromolar. The plate was incubated for 30 min at 37° C. Another 0.1 ml of serum-free M199 medium containing BSA and VEGF (or bFGF) was added to give a final concentration of 0.1% BSA and 10 ng/ml VEGF (0.3 ng/ml bFGF). The plate was incubated at 37° C. for 72 hrs. BrdU was added to each well after the first 48 hrs to give a concentration of 10 micromolar. The calorimetric ELISA assay was performed according to manufacturer's (Roche Molecular Sciences) instructions, with detection by absorbance reading at 450 nm. Results were plotted as concentration of test compound vs. absorbance to give an IC50 value for inhibition of BrdU incorporation.

SMILES | IC50 [µM]
CCS(=O)(=O)c1ccc(OC)c(Nc2ncc(F)c(N(C)c3ccc4c(C)n[nH]c4c3)n2)c1 [Example 1, N^2-[5-(ethylsulfonyl)-2-methoxyphenyl]-5-fluoro-N^4-methyl-N^4-(3-methyl-1H-indazol-6-yl)-2,4-pyrimidinediamine] | 0.201 to 0.5
CNS(=O)(=O)c1ccc(OC)c(Nc2ncc(F)c(N(C)c3ccc4c(C)n[nH]c4c3)n2)c1 [Example 2, 3-({5-fluoro-4-[methyl(3-methyl-1H-indazol-6-yl)amino]-2-pyrimidinyl}amino)-4-methoxy-N-methylbenzenesulfonamide] | 0.001 to 0.2
Cc1n[nH]c2cc(N(C)c3nc(Nc4cccc(CS(C)(=O)=O)c4)ncc3F)ccc12 [Example 3, 5-fluoro-N^4-methyl-N^4-(3-methyl-1H-indazol-6-yl)-N^2-{3-[(methylsulfonyl)methyl]phenyl}-2,4-pyrimidinediamine] | 0.001 to 0.2
COc1ccc(S(=O)(=O)NC(C)C)cc1Nc1ncc(F)c(N(C)c2ccc3c(C)n[nH]c3c2)n1 [Example 4, 3-({5-fluoro-4-[methyl(3-methyl-1H-indazol-6-yl)amino]-2-pyrimidinyl}amino)-N-isopropyl-4-methoxybenzenesulfonamide] | 0.201 to 0.5
COc1ccc(S(=O)(=O)C(C)C)cc1Nc1ncc(F)c(N(C)c2ccc3c(C)n[nH]c3c2)n1 [Example 5, 5-fluoro-N^2-[5-(isopropylsulfonyl)-2-methoxyphenyl]-N^4-methyl-N^4-(3-methyl-1H-indazol-6-yl)-2,4-pyrimidinediamine] | 0.201 to 0.5
Cc1ccc(Nc2ncc(F)c(N(C)c3ccc4c(C)n[nH]c4c3)n2)cc1NS(C)(=O)=O [Example 6, N-[5-({5-fluoro-4-[methyl(3-methyl-1H-indazol-6-yl)amino]-2-pyrimidinyl}amino)-2-methylphenyl]methanesulfonamide] | 0.201 to 0.5
Cc1n[nH]c2cc(N(C)c3nc(Nc4ccc(S(C)(=O)=O)cc4)ncc3F)ccc12 [Example 7, 5-fluoro-N^4-methyl-N^4-(3-methyl-1H-indazol-6-yl)-N^2-[4-(methylsulfonyl)phenyl]-2,4-pyrimidinediamine] | 0.201 to 0.5
CCc1n[nH]c2cc(N(C)c3nc(Nc4cccc(CS(C)(=O)=O)c4)ncc3F)ccc12 [Example 8, N^4-(3-ethyl-1H-indazol-6-yl)-5-fluoro-N^4-methyl-N^2-{3-[(methylsulfonyl)methyl]phenyl}-2,4-pyrimidinediamine] | 0.201 to 0.5
Cc1n[nH]c2cc(N(C)c3nc(Nc4ccc(S(N)(=O)=O)cc4)ncc3F)ccc12 [Example 9, 4-({5-fluoro-4-[methyl(3-methyl-1H-indazol-6-yl)amino]-2-pyrimidinyl}amino)benzenesulfonamide] | 0.201 to 0.5
CCN(c1ccc2c(C)n[nH]c2c1)c1nc(Nc2cc(S(C)(=O)=O)ccc2OC)ncc1F [Example 10, N^4-ethyl-5-fluoro-N^2-[2-methoxy-5-(methylsulfonyl)phenyl]-N^4-(3-methyl-1H-indazol-6-yl)-2,4-pyrimidinediamine] | > 1
CNS(=O)(=O)Cc1ccc(Nc2ncc(F)c(N(C)c3ccc4c(C)n[nH]c4c3)n2)cc1 [Example 11, [4-({5-fluoro-4-[methyl(3-methyl-1H-indazol-6-yl)amino]-2-pyrimidinyl}amino)phenyl]-N-methylmethanesulfonamide] | 0.201 to 0.5
Cc1n[nH]c2cc(N(C)c3nc(Nc4cccc(CS(=O)(=O)C(C)C)c4)ncc3F)ccc12 [Example 12, 5-fluoro-N^2-{3-[(isopropylsulfonyl)methyl]phenyl}-N^4-methyl-N^4-(3-methyl-1H-indazol-6-yl)-2,4-pyrimidinediamine] | 0.001 to 0.2
COc1ccc(C(N)=O)cc1Nc1ncc(F)c(N(C)c2ccc3c(C)n[nH]c3c2)n1 [Example 13, 3-({5-fluoro-4-[methyl(3-methyl-1H-indazol-6-yl)amino]-2-pyrimidinyl}amino)-4-methoxybenzamide] | 0.201 to 0.5
COc1cc(S(N)(=O)=O)ccc1Nc1ncc(F)c(N(C)c2ccc3c(C)n[nH]c3c2)n1 [Example 14, 4-({5-fluoro-4-[methyl(3-methyl-1H-indazol-6-yl)amino]-2-pyrimidinyl}amino)-3-methoxybenzenesulfonamide] | 0.001 to 0.2
Cc1n[nH]c2cc(Nc3ncnc(Nc4cccc(CS(C)(=O)=O)c4)n3)ccc12 [Example 15, N^2-(3-methyl-1H-indazol-6-yl)-N^4-{3-[(methylsulfonyl)methyl]phenyl}-1,3,5-triazine-2,4-diamine trifluoroacetate] | 0.501 to 1
Cc1n[nH]c2cc(N(C)c3ncnc(Nc4cccc(CS(C)(=O)=O)c4)n3)ccc12 [Example 16, N^2-methyl-N^2-(3-methyl-1H-indazol-6-yl)-N^4-{3-[(methylsulfonyl)methyl]phenyl}-1,3,5-triazine-2,4-diamine hydrochloride] | 0.201 to 0.5

SMILES | IC50 [µM]
CCS(=O)(=O)c1ccc(OC)c(Nc2ncnc(N(C)c3ccc4c(C)n[nH]c4c3)n2)c1 [Example 17, N^2-[5-(ethylsulfonyl)-2-methoxyphenyl]-N^4-methyl-N^4-(3-methyl-1H-indazol-6-yl)-1,3,5-triazine-2,4-diamine hydrochloride] | 0.501 to 1
Cc1ccc(Nc2ncnc(N(C)c3ccc4c(C)n[nH]c4c3)n2)cc1NS(C)(=O)=O [Example 18, N-[2-methyl-5-({4-[methyl(3-methyl-1H-indazol-6-yl)amino]-1,3,5-triazin-2-yl}amino)phenyl]methanesulfonamide] | 0.501 to 1
Cc1n[nH]c2cc(N(C)c3ncnc(Nc4cccc(S(C)(=O)=O)c4)n3)ccc12 [Example 19, N^2-methyl-N^2-(3-methyl-1H-indazol-6-yl)-N^4-[3-(methylsulfonyl)phenyl]-1,3,5-triazine-2,4-diamine] | 0.201 to 0.5
CC(=O)Nc1ccc(Nc2ncnc(N(C)c3ccc4c(C)n[nH]c4c3)n2)cc1 [Example 20, N-[4-({4-[methyl(3-methyl-1H-indazol-6-yl)amino]-1,3,5-triazin-2-yl}amino)phenyl]acetamide hydrochloride] | > 1
Cc1n[nH]c2cc(N(C)c3ccnc(Nc4cccc(S(N)(=O)=O)c4)n3)ccc12 [Example 21, 3-({4-[methyl(3-methyl-1H-indazol-6-yl)amino]-2-pyrimidinyl}amino)benzenesulfonamide hydrochloride] | 0.001 to 0.2
CCS(=O)(=O)c1ccc(OC)c(Nc2nccc(N(C)c3ccc4c(C)n[nH]c4c3)n2)c1 [Example 22, N^2-[5-(ethylsulfonyl)-2-methoxyphenyl]-N^4-methyl-N^4-(3-methyl-1H-indazol-6-yl)-2,4-pyrimidinediamine] | 0.001 to 0.2
Cc1n[nH]c2cc(N(C)c3ccnc(Nc4cccc(CS(C)(=O)=O)c4)n3)ccc12 [Example 23, N^4-methyl-N^4-(3-methyl-1H-indazol-6-yl)-N^2-{3-[(methylsulfonyl)methyl]phenyl}-2,4-pyrimidinediamine] | 0.001 to 0.2
Cc1n[nH]c2cc(N(C)c3ccnc(Nc4cccc(S(=O)(=O)NC(C)C)c4)n3)ccc12 [Example 24, N-isopropyl-3-({4-[methyl(3-methyl-1H-indazol-6-yl)amino]-2-pyrimidinyl}amino)benzenesulfonamide] | 0.001 to 0.2
Cc1n[nH]c2cc(N(C)c3ccnc(Nc4cccc(S(=O)(=O)NC5CC5)c4)n3)ccc12 [Example 25, N-cyclopropyl-3-({4-[methyl(3-methyl-1H-indazol-6-yl)amino]-2-pyrimidinyl}amino)benzenesulfonamide] | 0.001 to 0.2
CCN(c1ccc2c(C)n[nH]c2c1)c1ccnc(Nc2cc(S(=O)(=O)CC)ccc2OC)n1 [Example 26, N^4-ethyl-N^2-[5-(ethylsulfonyl)-2-methoxyphenyl]-N^4-(3-methyl-1H-indazol-6-yl)-2,4-pyrimidinediamine] | 0.201 to 0.5
Cc1n[nH]c2cc(N(C)c3ccnc(Nc4cccc(NS(C)(=O)=O)c4)n3)ccc12 [Example 27, N-[3-({4-[methyl(3-methyl-1H-indazol-6-yl)amino]-2-pyrimidinyl}amino)phenyl]methanesulfonamide] | 0.001 to 0.2
Cc1n[nH]c2cc(N(C)c3ccnc(Nc4cccc(CS(=O)(=O)C(C)C)c4)n3)ccc12 [Example 28, N^2-{3-[(isopropylsulfonyl)methyl]phenyl}-N^4-methyl-N^4-(3-methyl-1H-indazol-6-yl)-2,4-pyrimidinediamine] | 0.001 to 0.2
Cc1n[nH]c2cc(N(C)c3ccnc(Nc4ccc(CS(=O)(=O)C(C)C)cc4)n3)ccc12 [Example 29, N^2-{4-[(isopropylsulfonyl)methyl]phenyl}-N^4-methyl-N^4-(3-methyl-1H-indazol-6-yl)-2,4-pyrimidinediamine] | 0.001 to 0.2
COc1ccc(S(=O)(=O)CC(C)C)cc1Nc1nccc(Nc2ccc3c(C)n[nH]c3c2)n1 [Example 30, N^2-[5-(isobutylsulfonyl)-2-methoxyphenyl]-N^4-(3-methyl-1H-indazol-6-yl)-2,4-pyrimidinediamine] | 0.501 to 1
CC(=O)Nc1cccc(Nc2nccc(N(C)c3ccc4c(C)n[nH]c4c3)n2)c1 [Example 31, N-[3-({4-[methyl(3-methyl-1H-indazol-6-yl)amino]-2-pyrimidinyl}amino)phenyl]acetamide] | 0.001 to 0.2
